Measured values: patent US11124479B2, “Oligopyrroles as antagonists of islet amyloid polypeptide oligomerization” (New York University, priority 2017, dated 2021)

Legend:
Aβ42 = molecular target: T1, Aβ42 (Homo sapiens, UniProt P05067); assay: ThT kinetic assay of Aβ42 fibrillation (specificity assay); type: biochemical
T1 construct: purchased
Procedure: Kinetic assays were conducted on a FlexStation 3 Multi-Mode Microplate reader from Molecular Devices (Sunnyvale, Calif.). Experiments were conducted in triplicate in a 96-well plate with a final volume of 200 μL per well. Every measurement was an average of 50 readings. The aggregation of IAPP was initiated by its addition from a stock solution (1 mM in DMSO) to phosphate buffer. The stoichiometry ratio for ThT to IAPP was 0.5:1. Peptide aggregation was monitored by ThT fluorescence (λex=445 nm and λem=485 nm). The blank sample contained all the components of the peptide samples except peptide. The sample data were processed by subtracting the blank and renormalizing the fluorescence intensity by setting the maximum value to 1.
Kinetic assays in the presence of the compounds of the invention were conducted under the same conditions. Small molecules were added from a stock solution (1 mM or 10 mM in DMSO) to keep the final concentration of DMSO less than 1.0% (v/v). Small molecules were added to the wells with ThT and buffer and mixed gently with a pipette before adding IAPP. To keep the conditions identical, an equal amount of DMSO was added to the wells with IAPP only reactions. For the aggregation kinetics of Aβ42, the peptide was dissolved in 1N NaOH (0.5-1 mM) and vortexed for 2 min. to ensure the complete solubility. The aggregation of 3 μM Aβ42 was initiated by addition of peptide from a stock solution (in 1 N NaOH, 0.5-1 mM) to phosphate buffer.
Kinetic profiles were processed using Origin (version 9.1). Kinetic curves were fit using the built-in sigmoidal fit. Each run was fit independently to extract the t50 (time required to reach 50% of the maximum fluorescence intensity). Error bars represent standard deviations from the mean of at least three independent experiments.
To test the specificity of ADH-101 towards IAPP, the binding interaction of ADH-101 with Aβ peptide was investigated. […]

[1] = Self-aggregation by UV, centrifugation and DLS; type: physicochemical
Source text: ADH-101 contains hydrophobic and negatively charged groups and presents a possibility for self-aggregation. It has been shown that the small molecules with self-aggregation tendencies can inhibit amyloid formation in a non-specific manner. Therefore, UV, centrifugation, and DLS were used to explore the self-aggregation properties of ADH-101 (FIG. 12A).

[2] = molecular target: T2, islet amyloid polypeptide (IAPP) (Homo sapiens, UniProt P10997); assay: PICUP SDS-PAGE silver staining of IAPP oligomerization; type: biochemical; settings: 15 μM IAPP, equimolar ratio, up to 300 min
T2 construct: IAPP is a 37 residue neuropancreatic hormone peptide; purchased Anaspec (Fremont, Calif.)
T2 sequence (P10997 34-70 limits assumed): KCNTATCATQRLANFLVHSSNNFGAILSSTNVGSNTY
Procedure: The effect of ADH-101 on the oligomerization of IAPP was evaluated using performance photo-induced cross-linking of unmodified proteins (PICUP) SDS-PAGE-silver staining as described in Ono, K.; Condron, M. M.; Teplow, D. B. Proc. Natl. Acad. Sci. U.S.A. 2009, 106, 14745-14750 (FIG. 2E). IAPP was incubated in a buffer in the presence and absence of ADH-101 at an equimolar ratio, and the solutions were then treated with the cross-linking agent at various time intervals (FIG. 2E). IAPP forms oligomers of varying sizes as a function of time (FIG. 2E, Lane i-iv). […] Without wishing to be bound by any theory, it is postulated that ADH-101 forms a complex with monomeric IAPP and abolishes the oligomerization of IAPP.

[3] = molecular target: T2, islet amyloid polypeptide (IAPP); assay: Transmission electron microscopy (TEM) of IAPP fibers; settings: 10 μM IAPP, equimolar ratio
Procedure: […] Aliquots of these samples were then applied to glow-discharged carbon-coated 300-mesh copper grids for 2 min and dried. Grids were negatively stained with uranyl acetate (2%, w/v) and dried. Micrographs of grids were examined on a Phillips CM12 Cryoelectron Microscope equipped with Gatan 4 k×2.7 k CCD camera at 120-kV accelerating voltage.

T1 sequence (P05067 672-713 limits assumed): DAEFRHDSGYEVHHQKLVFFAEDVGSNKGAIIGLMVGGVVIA

effect on Aβ42 fibrillation (in words) (Aβ42): weak agonist
relative t50 for Aβ42 amyloid fiber formation (Aβ42; 3 μM Aβ42, equimolar ratio): 0.8 fold
t50 for the amyloid kinetics of Aβ42 in the presence of compound (Aβ42; 3 μM Aβ42, equimolar ratio, Aβ42 alone 4.22±0.51 h): 3.41 ± 0.32 h
diameter of species by DLS ([1]; 50 μM, 150 mM KCl, 50 mM NaPi, pH 7.4): less than 10 nm
concentration up to which the compound did not self-assemble ([1]; phosphate buffer, UV and centrifugation): > 40 µM
fiber formation by TEM ([3]; 12 hours): no formation of fibers
fiber formation by TEM ([3]; 24 h): formation of amorphous fibers
SMILES: CCOC(=O)c1cc(NC(=O)c2cc(NC(=O)c3cc([N+](=O)[O-])cn3CC(C)C)cn2CC(C)C)cn1CCC(=O)O [ADH-101]
IAPP oligomerization (PICUP) [2]: completely inhibits the formation of large aggregates
